From patent publication US6613322B2, “Method for treating a subject suffering from conditions associated with an extracellular zinc sphingomyelinase” (The Trustees of Columbia University in the City of New York, priority 1997, dated 2003)

Tested on: LDL
Settings: 10-fold molar excess of choline-phosphate, no SMase
Description: Next it was determined which of the three consequences of SMase enzymatic activity, namely, generation of choline-phosphate, generation of ceramide, and depletion of SM, is responsible for LDL aggregation. […] Incubating LDL with a 10-fold molar excess of choline-phosphate was performed.

C[N+](C)(C)CCOP(=O)(O)O [choline-phosphate]
turbidity of LDL: failed to increase the turbidity of LDL
